According to patent US12415794B2 (Edgewise Therapeutics, Inc., priority 2018, dated 2025):

Legend:
[1] = test system: embryos from zebrafish model of DMD; settings: Li and Amer, PLoSONE, 2015; cited from earlier work
[2] = biological target: T1, cardiac myofibrils (myosin ATPase); experiment: Cardiac Myofibril ATPase Assay (counter screen); format: biochemical; settings: myofibrils 1.0 mg/mL, KCl omitted
T1 construct: frozen myofibril pellets obtained from cardiac tissue; from tissue
Summary of the method: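 Myosin ATPase rate followed via NADH disappearance at 340 nm, coupled through pyruvate kinase and lactate dehydrogenase, using cardiac myofibril pellets (final 1.0 mg/mL) without KCl. IC50 values reflect rate reduction compared with vehicle-treated wells.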

[3] = biological target: skeletal myofibrils (myosin ATPase); experiment: Skeletal Myofibril ATPase Assay; format: biochemical
Summary of the method: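 Rates of NADH loss (A340, kinetic read over 45 min) report ADP generation by myofibrillar myosin, coupled through pyruvate kinase and lactate dehydrogenase; pCa buffer at pH 7.0. IC50 fitted by 4-parameter logistic after normalizing to 1% DMSO controls; cardiac myofibrils served for selectivity.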

T1 sequence (P12883 whole entry): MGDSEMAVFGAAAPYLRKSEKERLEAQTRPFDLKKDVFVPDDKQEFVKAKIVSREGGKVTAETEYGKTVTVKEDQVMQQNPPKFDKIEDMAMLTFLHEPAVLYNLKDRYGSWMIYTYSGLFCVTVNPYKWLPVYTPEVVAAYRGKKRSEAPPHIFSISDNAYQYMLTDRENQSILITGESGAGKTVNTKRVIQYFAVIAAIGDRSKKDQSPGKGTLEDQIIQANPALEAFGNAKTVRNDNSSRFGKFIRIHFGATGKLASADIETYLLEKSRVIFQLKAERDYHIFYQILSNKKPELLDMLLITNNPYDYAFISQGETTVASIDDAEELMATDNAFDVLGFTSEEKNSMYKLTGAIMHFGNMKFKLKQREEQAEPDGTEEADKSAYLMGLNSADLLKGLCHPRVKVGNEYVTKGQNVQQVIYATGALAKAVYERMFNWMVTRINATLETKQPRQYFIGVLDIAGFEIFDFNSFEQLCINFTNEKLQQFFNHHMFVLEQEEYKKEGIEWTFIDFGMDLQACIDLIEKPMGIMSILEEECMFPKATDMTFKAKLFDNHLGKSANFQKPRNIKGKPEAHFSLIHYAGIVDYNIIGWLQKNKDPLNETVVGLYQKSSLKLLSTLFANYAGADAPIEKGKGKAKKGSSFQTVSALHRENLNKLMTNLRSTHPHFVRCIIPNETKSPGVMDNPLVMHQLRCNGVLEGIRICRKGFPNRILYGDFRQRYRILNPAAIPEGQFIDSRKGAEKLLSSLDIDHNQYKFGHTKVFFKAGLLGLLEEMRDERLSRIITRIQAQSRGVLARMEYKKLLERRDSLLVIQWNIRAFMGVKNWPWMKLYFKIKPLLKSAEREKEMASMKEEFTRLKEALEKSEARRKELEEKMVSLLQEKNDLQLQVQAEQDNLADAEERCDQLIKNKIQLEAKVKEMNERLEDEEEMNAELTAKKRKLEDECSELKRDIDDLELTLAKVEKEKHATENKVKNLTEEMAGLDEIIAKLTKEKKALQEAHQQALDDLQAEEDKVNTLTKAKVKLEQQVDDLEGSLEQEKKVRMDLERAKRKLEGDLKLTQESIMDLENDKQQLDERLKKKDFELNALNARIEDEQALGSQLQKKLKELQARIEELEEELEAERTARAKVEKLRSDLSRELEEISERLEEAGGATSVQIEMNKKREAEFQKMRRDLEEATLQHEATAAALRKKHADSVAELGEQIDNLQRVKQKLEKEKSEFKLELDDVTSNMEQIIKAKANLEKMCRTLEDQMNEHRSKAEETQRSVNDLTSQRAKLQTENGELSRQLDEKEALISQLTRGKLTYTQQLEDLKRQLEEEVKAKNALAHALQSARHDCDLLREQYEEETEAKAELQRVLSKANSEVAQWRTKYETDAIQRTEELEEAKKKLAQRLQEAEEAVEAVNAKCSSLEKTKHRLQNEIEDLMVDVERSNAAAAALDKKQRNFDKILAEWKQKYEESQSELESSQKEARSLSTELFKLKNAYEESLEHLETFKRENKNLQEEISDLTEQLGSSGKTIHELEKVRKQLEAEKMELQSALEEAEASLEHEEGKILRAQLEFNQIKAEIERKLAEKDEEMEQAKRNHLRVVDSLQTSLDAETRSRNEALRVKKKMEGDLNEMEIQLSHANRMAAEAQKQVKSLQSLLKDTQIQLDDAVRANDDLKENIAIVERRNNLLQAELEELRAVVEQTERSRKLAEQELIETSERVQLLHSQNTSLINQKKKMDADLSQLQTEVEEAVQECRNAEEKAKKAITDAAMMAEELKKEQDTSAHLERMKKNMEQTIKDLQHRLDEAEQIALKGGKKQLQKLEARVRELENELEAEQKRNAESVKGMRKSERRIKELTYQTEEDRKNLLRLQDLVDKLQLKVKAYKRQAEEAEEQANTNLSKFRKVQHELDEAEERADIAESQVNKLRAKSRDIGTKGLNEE
T1 sequence (P08590 whole entry partner): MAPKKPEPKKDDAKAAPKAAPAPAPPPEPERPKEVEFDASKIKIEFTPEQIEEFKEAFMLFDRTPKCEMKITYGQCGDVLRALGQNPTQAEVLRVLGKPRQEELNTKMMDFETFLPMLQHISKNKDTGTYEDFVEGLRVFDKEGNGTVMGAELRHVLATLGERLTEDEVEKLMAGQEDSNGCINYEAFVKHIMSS
T1 sequence (P10916 whole entry partner): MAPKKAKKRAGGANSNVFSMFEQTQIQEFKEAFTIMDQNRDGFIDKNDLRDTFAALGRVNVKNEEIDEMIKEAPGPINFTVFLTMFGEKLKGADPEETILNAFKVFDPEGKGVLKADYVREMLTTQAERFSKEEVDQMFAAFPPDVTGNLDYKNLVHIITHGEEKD

Row | IC50 ([2]; Table 5A) | IC50 ([3]; Table 4A) | IC50 ([2]; Table 5C) | IC50 ([3]; Table 4C) | Compound | further results
1 |  |  |  |  | Cc1ccc(S(=O)(=O)NCc2ccccc2)cc1 [N-benzyl-p-tolyl-sulfonamide (BTS), N-benzyl-p-tolyl-sulfonamide] | protection of muscles from pathological muscle derangement [1]: protect muscles from pathological muscle derangement
2 | > 100 µM | 10 to 100 µM |  |  | CCNC(=O)Cn1nc(-c2cnc(Oc3ccc(Cl)cc3)nc2)ccc1=O [Compound I-78, 2-(3-(2-(4-chlorophenoxy)pyrimidin-5-yl)-6-oxopyridazin-1(6H)-yl)-N-ethylacetamide] | 
3 | > 100 µM | < 10 µM |  |  | CCNC(=O)Cn1nc(-c2cnc(NC34CC(C3)C4)nc2)ccc1=O [Compound I-59, 2-(3-(2-(bicyclo[1.1.1]pentan-1-ylamino)pyrimidin-5-yl)-6-oxopyridazin-1(6H)-yl)-N-ethylacetamide] | 
4 |  |  | > 100 µM | < 10 µM | COc1ccc(-c2ccc(=O)n(CC(=O)NC(C)(C)c3ccccc3)n2)cc1 [IIIa-9, 2-(3-(4-methoxyphenyl)-6-oxopyridazin-1(6H)-yl)-N-(2-phenylpropan-2-yl)acetamide] | 
5 |  |  | > 100 µM | 10 to 100 µM | COc1ccc(NC(=O)Cn2nc(-c3ccc(F)cc3)ccc2=O)c(OC)c1 [IIIc-31, N-(2,4-dimethoxyphenyl)-2-(3-(4-fluorophenyl)-6-oxopyridazin-1(6H)-yl)acetamide] | 
6 | > 100 µM | < 10 µM |  |  | O=C(Cn1nc(-c2cnc(OCC(F)(F)F)nc2)ccc1=O)NC12CC(C1)C2 [Compound I-51, N-(bicyclo[1.1.1]pentan-1-yl)-2-(6-oxo-3-(2-(2,2,2-trifluoroethoxy)pyrimidin-5-yl)pyridazin-1(6H)-yl)acetamide] | 
7 |  |  | > 100 µM | 10 to 100 µM | COc1ccc(-c2ccc(=O)n(CC(=O)NC3CCCC3)n2)cc1 [IIIb-23, N-cyclopentyl-2-(3-(4-methoxyphenyl)-6-oxopyridazin-1(6H)-yl)acetamide] | 
8 |  |  | > 100 µM | 10 to 100 µM | COc1ccc(CNC(=O)Cn2nc(-c3ccc(OC)cc3)ccc2=O)cc1 [IIIb-34, N-(4-methoxybenzyl)-2-(3-(4-methoxyphenyl)-6-oxopyridazin-1(6H)-yl)acetamide] | 
9 |  |  | > 100 µM | 10 to 100 µM | CC(C)NC(=O)Cn1nc(-c2ccc(Br)cc2)ccc1=O [IIIc-40, 2-(3-(4-bromophenyl)-6-oxopyridazin-1(6H)-yl)-N-isopropylacetamide] | 
10 | > 100 µM | 10 to 100 µM |  |  | CCNC(=O)Cn1nc(-c2ccc(N3CC(F)(F)C3)nc2)ccc1=O [Compound I-6, 2-(3-(6-(3,3-difluoroazetidin-1-yl)pyridin-3-yl)-6-oxopyridazin-1(6H)-yl)-N-ethylacetamide] | 
11 |  |  | > 100 µM | > 100 µM | COc1ccc(-c2ccc(=O)n(CC(=O)NCc3ccno3)n2)cc1 [IIIa-34, N-(isoxazol-5-ylmethyl)-2-(3-(4-methoxyphenyl)-6-oxopyridazin-1(6H)-yl)acetamide] | 
12 |  |  | > 100 µM | 10 to 100 µM | COc1ccc(-c2ccc(=O)n(CC(=O)NC(C)C)n2)c(F)c1 [IIIb-19, 2-(3-(2-fluoro-4-methoxyphenyl)-6-oxopyridazin-1(6H)-yl)-N-isopropylacetamide] | 
13 |  |  | > 100 µM | 10 to 100 µM | COc1ccc(-c2ccc(=O)n(CC(=O)NC(C)CCc3ccccc3)n2)c(F)c1 (stereo not drawn) [IIIb-36, 2-(3-(2-fluoro-4-methoxyphenyl)-6-oxopyridazin-1(6H)-yl)-N-(4-phenylbutan-2-yl)acetamide] | 
14 |  |  | > 100 µM | < 10 µM | O=C(Cn1nc(-c2ccc3c(c2)OCCO3)ccc1=O)Nc1ccccc1F [IIIb-17, 2-(3-(2,3-dihydrobenzo[b][1,4]dioxin-6-yl)-6-oxopyridazin-1(6H)-yl)-N-(2-fluorophenyl)acetamide] | 
15 | > 100 µM | < 10 µM |  |  | O=C(Cn1nc(-c2ccc(OC(F)F)nc2)ccc1=O)NCc1ccc(Cl)cc1 [Compound I-70, N-(4-chlorobenzyl)-2-(3-(6-(difluoromethoxy)pyridin-3-yl)-6-oxopyridazin-1(6H)-yl)acetamide] | 
16 |  |  | > 100 µM | > 100 µM | COc1ccc(-c2ccc(=O)n(CC(=O)NCc3ccco3)n2)cc1 [IIIb-53, N-(furan-2-ylmethyl)-2-(3-(4-methoxyphenyl)-6-oxopyridazin-1(6H)-yl)acetamide] | 
17 |  |  |  |  | CCNC(=O)Cn1nc(-c2ccc(OC(F)(F)F)cc2)ccc1=O [II-5, N-ethyl-2-(6-oxo-3-(4-(trifluoromethoxy)phenyl)pyridazin-1(6H)-yl)acetamide] | IC50 ([2]; Table 5B): > 100 µM; IC50 ([3]; Table 4B): < 10 µM
18 |  |  | > 100 µM | 10 to 100 µM | Cc1ccc(-c2ccc(=O)n(CC(=O)NC3CCCCC3)n2)cc1 [IIIc-6, N-cyclohexyl-2-(6-oxo-3-(p-tolyl)pyridazin-1(6H)-yl)acetamide] | 

Row | IC50 ([2]; Table 5A) | IC50 ([3]; Table 4A) | IC50 ([2]; Table 5C) | IC50 ([3]; Table 4C) | Compound | further results
19 | > 100 µM | < 10 µM |  |  | O=C(Cn1nc(-c2ccc(NC34CC(C3)C4)nc2)ccc1=O)NC1CCC1 [Compound I-54, 2-(3-(6-(bicyclo[1.1.1]pentan-1-ylamino)pyridin-3-yl)-6-oxopyridazin-1(6H)-yl)-N-cyclobutylacetamide] | 
20 |  |  | > 100 µM | > 100 µM | COc1ccc(-c2ccc(=O)n(CC(=O)NCc3ccccc3F)n2)cc1 [IIIb-38, N-(2-fluorobenzyl)-2-(3-(4-methoxyphenyl)-6-oxopyridazin-1(6H)-yl)acetamide] | 
21 | > 100 µM | < 10 µM |  |  | CCNC(=O)Cn1nc(-c2ccc(NC3COC3)nc2)ccc1=O [Compound I-44, N-ethyl-2-(3-(6-(oxetan-3-ylamino)pyridin-3-yl)-6-oxopyridazin-1(6H)-yl)acetamide] | 
22 |  |  | > 100 µM | > 100 µM | CCc1ccc(-c2ccc(=O)n(CC(=O)Nc3ccc4c(c3)OCCO4)n2)cc1 [IIIb-44, N-(2,3-dihydrobenzo[b][1,4]dioxin-6-yl)-2-(3-(4-ethylphenyl)-6-oxopyridazin-1(6H)-yl)acetamide] | 
23 |  |  | > 100 µM | 10 to 100 µM | CC[C@H](C)NC(=O)Cn1nc(-c2ccc(Cl)cc2)ccc1=O [IIIc-30, (S)-N-(sec-butyl)-2-(3-(4-chlorophenyl)-6-oxopyridazin-1(6H)-yl)acetamide] | 
24 |  |  | > 100 µM | 10 to 100 µM | O=C(Cn1nc(-c2ccc3c(c2)OCCCO3)ccc1=O)NC1CCCCCC1 [IIIb-24, N-cycloheptyl-2-(3-(3,4-dihydro-2H-benzo[b][1,4]dioxepin-7-yl)-6-oxopyridazin-1(6H)-yl)acetamide] | 
25 |  |  | > 100 µM | 10 to 100 µM | COc1ccc(-c2ccc(=O)n(CC(=O)Nc3ccc4c(c3)OCO4)n2)c(F)c1 [IIIb-33, N-(benzo[d][1,3]dioxol-5-yl)-2-(3-(2-fluoro-4-methoxyphenyl)-6-oxopyridazin-1(6H)-yl)acetamide] | 
26 |  |  |  |  | O=C(Cn1nc(-c2ccc(OCC(F)(F)F)cc2)ccc1=O)NCc1ccc(O)nc1 [II-20, N-((6-hydroxypyridin-3-yl)methyl)-2-(6-oxo-3-(4-(2,2,2-trifluoroethoxy)phenyl)pyridazin-1(6H)-yl)acetamide] | IC50 ([2]; Table 5B): > 100 µM; IC50 ([3]; Table 4B): > 100 µM
27 |  |  | > 100 µM | 10 to 100 µM | COc1ccc(-c2ccc(=O)n(CC(=O)NC(C)C)n2)cc1 [IIIb-18, N-isopropyl-2-(3-(4-methoxyphenyl)-6-oxopyridazin-1(6H)-yl)acetamide] | 
28 |  |  | > 100 µM | > 100 µM | COc1ccc(-c2ccc(=O)n(CC(=O)Nc3cccc(Cl)c3)n2)cc1 [IIIb-52, N-(3-chlorophenyl)-2-(3-(4-methoxyphenyl)-6-oxopyridazin-1(6H)-yl)acetamide] | 
29 |  |  | > 100 µM | < 10 µM | O=C(Cn1nc(-c2ccc(Cl)cc2)ccc1=O)Nc1cccc2[nH]ccc12 [IIIc-19, 2-(3-(4-chlorophenyl)-6-oxopyridazin-1(6H)-yl)-N-(1H-indol-4-yl)acetamide] | 
30 |  |  |  |  | CCNC(=O)Cn1nc(-c2ccc(OC(F)F)cc2)cc(C)c1=O [II-21, 2-(3-(4-(difluoromethoxy)phenyl)-5-methyl-6-oxopyridazin-1(6H)-yl)-N-ethylacetamide] | IC50 ([2]; Table 5B): > 100 µM; IC50 ([3]; Table 4B): > 100 µM
31 | > 100 µM | 10 to 100 µM |  |  | CCNC(=O)Cn1nc(-c2ccc(NC3CC(F)(F)C3)nc2)ccc1=O [Compound I-74, 2-(3-(6-((3,3-difluorocyclobutyl)amino)pyridin-3-yl)-6-oxopyridazin-1(6H)-yl)-N-ethylacetamide] | 
32 | > 100 µM | 10 to 100 µM |  |  | COc1ccc(-c2ccc(=O)n(CC(=O)NC(C)C)n2)cn1 [Compound I-16, N-isopropyl-2-(3-(6-methoxypyridin-3-yl)-6-oxopyridazin-1(6H)-yl)acetamide] | 
33 | 10 to 100 µM | < 10 µM |  |  | O=C(Cn1nc(-c2ccc(OCC(F)(F)F)nc2)ccc1=O)NC1CCC1 [Compound I-56, N-cyclobutyl-2-(6-oxo-3-(6-(2,2,2-trifluoroethoxy)pyridin-3-yl)pyridazin-1(6H)-yl)acetamide] | 
34 | > 100 µM | 10 to 100 µM |  |  | CC(C)(C#N)NC(=O)Cn1nc(-c2ccc(OC(F)F)nc2)ccc1=O [Compound I-35, N-(2-cyanopropan-2-yl)-2-(3-(6-(difluoromethoxy)pyridin-3-yl)-6-oxopyridazin-1(6H)-yl)acetamide] | 
35 | > 100 µM | < 10 µM |  |  | CCNC(=O)Cn1nc(-c2cnc(Nc3ccc(Cl)cc3)nc2)ccc1=O [Compound I-1, 2-(3-(2-((4-chlorophenyl)amino)pyrimidin-5-yl)-6-oxopyridazin-1(6H)-yl)-N-ethylacetamide] | 
